Source: patent publication US20070092474A1, “Carnitine salt, preliposome which contains it and dermocosmetic formula for topical use based upon said carnitine salt” (priority 2003, published 2007)
Where “and” joins values, the source holds several entries; their conditions need not be identical. Equal values may be shown once.

Test system: skin blemishes caused by cellulite and localised adiposity
Assay: Thigh circumference measured with a measuring tape, dermatological test of the cosmetic gel
Assay type: in vivo, female volunteers
Set-up: RIGHT THIGH CIRCUMFERENCE 1/3 T0 / RIGHT THIGH CIRCUMFERENCE 3/3 T15 / RIGHT THIGH CIRCUMFERENCE 3/3 T30 / RIGHT THIGH CIRCUMFERENCE 3/3 T60 / RIGHT THIGH CIRCUMFERENCE 1/3 T15 / RIGHT THIGH CIRCUMFERENCE 1/3 T60 / RIGHT THIGH CIRCUMFERENCE 2/3 T0 / RIGHT THIGH CIRCUMFERENCE 2/3 T15 / RIGHT THIGH CIRCUMFERENCE 2/3 T30 / RIGHT THIGH CIRCUMFERENCE 2/3 T60 / RIGHT THIGH CIRCUMFERENCE 3/3 T0 / LEFT THIGH CIRCUMFERENCE 3/3 T60 / LEFT THIGH CIRCUMFERENCE 1/3 T15 / LEFT THIGH CIRCUMFERENCE 1/3 T30 / LEFT THIGH CIRCUMFERENCE 1/3 T60 / LEFT THIGH CIRCUMFERENCE 2/3 T0 / LEFT THIGH CIRCUMFERENCE 2/3 T15 / LEFT THIGH CIRCUMFERENCE 3/3 T0: unit not given beside the values
Experimental: A dermatological test was carried out on 25 female volunteers between 18 and 65 years of age, with the backing of the Department of Physiological and Pharmacological Sciences of the university of Pavia. The investigation aimed to check the modification of three anatomical-physiological parameters, qualifying the unaesthetic-functional aspect connected to the manifestation of so-called cellulite and subcutaneous hypertriglyceridaemia: measurement of the skin folds, measurement of the circumference of the thighs, thermographic skin measurement.
The test stretched out over 60 days with the continual daily application of the aforementioned preparation of cosmetic gel. The measurements were carried out after 15, 30 and 60 days. The detail of the test protocol and of the results obtained is shown hereafter.
25 female volunteers aged between 18 and 65, with the presence of skin blemishes caused by cellulite and localised adiposity, were selected according to the following criteria: good general state of health, absence of skin pathologies, not being under medication, commitment not to vary the normal daily routine, no medical history of atopy.
The samples were tested by uniformly applying them on “Glute SX Glute DJ (Femoris Posto SX Femoris Posto DX Femoris Ant. SX Femoris Ant. DX” every day at least once per day for the entire duration of the test.
At the time of inclusion in the study and during the subsequent checks after 15 days (T15), after 30 days (T30) and after 60 days (T60) of treatment the following instrumental measurements were taken: • plicometry (through a plicometer) • thigh circumference (through a measuring tape broken into millimetres) • contact thermography (through liquid crystal thermographic plates).

[1] = individual volunteer, T0 at inclusion, before treatment
[2] = individual volunteer, after 15 days of daily gel application
[3] = individual volunteer, after 30 days of daily gel application
[4] = individual volunteer, after 60 days of daily gel application

carnitine hydroxycitrate [carnitine hydroxy citrate]
RIGHT THIGH CIRCUMFERENCE 3/3 T60, MEDIA (MEDIA of 25 volunteers, after 60 days of daily gel application): 38.0
LEFT THIGH CIRCUMFERENCE 1/3 T0 [1]: 55.0 and 52.8 (2×) and 51.7 and 64.0 and 55.7 (3×) and 51.0 and 47.6 and 49.0 and 52.5 and 56.6 and 58.1 and 55.2 and 47.1 and 47.0 and 48.5 and 52.1 and 50.2 and 52.7 and 49.7 and 60.6 and 48.2 and 59.2
LEFT THIGH CIRCUMFERENCE 2/3 T0 [1]: 49.9 and 51.3 and 49.0 and 58.4 and 52.4 and 46.9 and 46.2 and 47.9 (2×) and 50.4 and 52.9 and 55.9 (2×) and 56.7 and 48.9 and 46.7 and 52.6 and 44.0 and 45.4 (2×) and 52.0 and 51.4 and 48.2 and 44.9 and 54.6
LEFT THIGH CIRCUMFERENCE 3/3 T0 [1]: 41.2 (2×) and 39.7 (2×) and 48.0 and 37.6 (2×) and 36.4 (2×) and 37.7 and 38.4 and 39.8 and 37.8 and 43.1 and 43.2 and 37.4 and 38.7 (2×) and 37.9 and 47.2 and 44.2 and 38.6 and 43.8 and 36.3 and 46.4
RIGHT THIGH CIRCUMFERENCE 1/3 T0 [1]: 55.0 and 53.2 and 52.0 (2×) and 64.7 and 55.7 (2×) and 50.6 and 48.1 and 49.0 and 53.0 and 56.9 and 59.0 and 55.2 and 52.6 and 47.0 (2×) and 48.3 and 52.2 and 54.9 and 50.2 and 50.8 and 60.8 and 48.2 and 56.0
RIGHT THIGH CIRCUMFERENCE 2/3 T0 [1]: 49.9 and 51.3 and 49.0 and 58.4 and 52.5 and 47.2 and 46.5 and 47.9 (2×) and 50.4 and 52.9 and 55.9 and 56.8 and 49.2 and 46.7 and 52.6 and 44.0 and 45.4 (2×) and 52.0 and 51.4 and 48.2 and 45.3 and 55.6 and 54.6
RIGHT THIGH CIRCUMFERENCE 3/3 T0 [1]: 41.2 (2×) and 39.7 and 48.0 and 37.6 (2×) and 36.4 (2×) and 37.7 and 38.4 (2×) and 39.8 and 37.8 and 45.3 and 43.2 and 37.4 and 38.6 and 39.0 and 37.9 and 39.5 and 47.5 and 44.1 and 43.8 and 36.3 and 46.4
LEFT THIGH CIRCUMFERENCE 1/3 T15 [2]: 54.5 and 52.3 (2×) and 51.2 and 63.5 and 55.2 (3×) and 50.5 and 47.1 and 48.5 and 52.0 and 56.1 and 57.6 and 54.7 and 46.6 and 46.5 and 48.0 and 51.6 and 49.7 and 52.2 and 49.2 and 60.5 and 47.7 and 58.7
LEFT THIGH CIRCUMFERENCE 2/3 T15 [2]: 49.4 and 50.8 and 48.5 and 57.9 and 51.9 and 46.4 and 45.7 and 47.4 (2×) and 49.9 and 52.4 and 55.4 (2×) and 56.2 and 48.4 and 46.2 and 52.1 and 43.5 and 44.9 (2×) and 51.5 and 50.9 and 47.7 and 44.4 and 54.1
LEFT THIGH CIRCUMFERENCE 3/3 T15 [2]: 40.7 (2×) and 39.2 (2×) and 47.5 and 37.1 (2×) and 35.9 (2×) and 37.2 and 37.9 and 39.3 and 37.3 and 42.6 and 42.7 and 36.9 and 38.2 (2×) and 37.4 and 46.7 and 43.7 and 38.1 and 43.3 and 35.8 and 45.9
RIGHT THIGH CIRCUMFERENCE 1/3 T15 [2]: 55.9 and 52.8 and 53.2 and 65.3 and 55.3 and 49.4 and 48.4 and 49.8 and 53.3 and 57.6 and 59.2 and 54.3 and 50.5 and 48.1 and 56.3 and 48.0 (2×) and 48.8 and 51.8 and 54.5 and 51.0 and 50.8 and 50.4 and 60.4 and 59.8
RIGHT THIGH CIRCUMFERENCE 2/3 T15 [2]: 48.2 and 49.6 and 47.3 (2×) and 56.7 and 50.7 and 46.2 (2×) and 44.5 and 49.8 and 52.3 and 55.6 and 56.5 and 48.7 and 45.0 and 50.9 and 44.0 and 45.2 and 51.8 and 51.0 and 47.9 and 43.2 and 54.2 and 43.7 and 52.9
RIGHT THIGH CIRCUMFERENCE 3/3 T15 [2]: 40.6 and 40.8 and 37.7 (3×) and 49.2 and 38.5 (2×) and 35.3 and 37.2 and 37.1 and 39.7 and 44.5 and 42.3 and 36.6 and 39.2 and 35.5 and 38.7 and 39.4 and 43.2 and 37.5 and 36.4 and 43.9 and 35.8 and 45.5
LEFT THIGH CIRCUMFERENCE 1/3 T30 [3]: 53.4 and 51.2 (2×) and 50.1 and 62.4 and 54.2 and 49.2 and 46.0 and 47.4 and 50.9 and 55.0 and 56.5 and 53.6 and 45.5 and 54.1 and 45.4 and 46.9 and 50.5 and 54.0 and 49.7 and 52.3 and 48.1 and 59.0 and 46.6 and 57.6
LEFT THIGH CIRCUMFERENCE 2/3 T30 [3]: 48.5 and 49.9 and 47.6 and 57.0 and 51.0 and 45.5 and 44.8 and 46.5 (2×) and 49.0 and 51.5 and 54.5 (2×) and 55.3 and 47.5 and 45.3 and 51.2 and 42.6 and 44.0 (2×) and 50.6 and 50.0 and 46.8 and 43.5 and 53.2
LEFT THIGH CIRCUMFERENCE 3/3 T30 [3]: 39.5 (2×) and 38.0 (2×) and 46.3 and 35.9 (2×) and 34.7 (2×) and 36.0 and 36.7 and 38.1 (2×) and 36.1 and 41.4 and 41.5 and 35.7 and 37.0 (2×) and 36.2 and 45.5 and 43.6 and 42.1 and 34.6 and 44.7
RIGHT THIGH CIRCUMFERENCE 1/3 T30 [3]: 54.5 and 51.4 and 51.8 and 63.9 and 53.9 and 48.0 and 47.0 and 48.4 and 51.9 and 56.2 and 57.8 and 52.9 and 49.3 and 46.7 and 53.6 and 47.1 and 46.5 and 49.9 and 53.0 and 48.6 and 48.5 and 49.0 and 59.0 and 46.4 and 58.4
RIGHT THIGH CIRCUMFERENCE 2/3 T30 [3]: 48.2 and 48.0 and 46.8 and 56.4 and 50.3 and 46.5 and 44.3 and 44.6 (2×) and 49.6 and 51.7 and 55.4 and 56.0 and 48.6 and 45.0 and 50.0 and 44.0 and 50.6 and 51.0 and 47.0 and 47.8 and 43.0 and 53.9 and 44.2 and 51.3
RIGHT THIGH CIRCUMFERENCE 3/3 T30 [3]: 40.5 and 40.3 and 36.6 (2×) and 48.1 and 38.2 and 34.2 and 36.4 (2×) and 38.7 (2×) and 38.4 and 43.4 and 41.0 and 36.2 and 36.8 (2×) and 35.2 and 37.8 and 38.3 and 42.5 and 35.7 and 42.8 and 35.6 and 44.3
LEFT THIGH CIRCUMFERENCE 1/3 T60 [4]: 52.7 and 50.5 (2×) and 49.4 and 61.7 and 53.4 (2×) and 48.7 and 44.9 and 46.7 and 50.0 and 53.7 and 55.8 and 51.7 and 44.8 and 52.9 and 44.7 and 46.2 and 49.8 and 48.5 and 50.4 and 47.4 and 57.9 and 45.9 and 56.9
LEFT THIGH CIRCUMFERENCE 2/3 T60 [4]: 47.6 and 49.0 and 46.7 and 56.1 and 50.1 and 44.6 and 43.9 and 45.6 (2×) and 48.1 and 50.6 and 53.6 (2×) and 54.4 and 46.6 and 44.4 and 50.3 and 41.7 and 43.1 (2×) and 49.7 and 49.1 and 45.9 and 42.6 and 52.3
LEFT THIGH CIRCUMFERENCE 3/3 T60 [4]: 39.0 (2×) and 37.5 (2×) and 45.8 and 35.4 (2×) and 34.2 (2×) and 35.5 and 36.2 and 37.6 and 35.6 and 41.6 (2×) and 41.0 and 35.2 and 36.5 (2×) and 35.7 and 45.0 and 42.0 and 36.4 and 34.1 and 44.2
RIGHT THIGH CIRCUMFERENCE 1/3 T60 [4]: 53.8 and 50.7 and 50.0 and 62.4 and 53.2 and 47.3 and 46.0 and 47.2 and 51.0 and 55.5 and 56.7 and 52.0 and 48.4 and 44.7 and 52.8 and 45.0 and 45.9 and 49.3 and 51.8 and 48.1 and 48.5 and 48.3 and 57.8 and 45.7 and 56.5
RIGHT THIGH CIRCUMFERENCE 2/3 T60 [4]: 46.8 and 48.1 and 46.5 and 56.4 and 49.2 and 43.7 and 44.5 and 44.7 and 47.2 and 49.7 and 53.8 and 56.0 and 46.3 and 43.5 (2×) and 49.4 and 44.3 and 50.2 and 48.3 and 45.9 and 45.0 and 41.7 and 52.7 and 43.2 and 50.8
RIGHT THIGH CIRCUMFERENCE 3/3 T60 [4]: 38.2 (2×) and 39.3 and 36.2 (3×) and 47.7 and 37.0 (2×) and 33.8 and 35.7 and 35.6 and 43.0 and 40.8 and 34.8 and 37.7 and 34.2 and 37.2 and 37.9 and 41.7 and 36.0 and 33.7 and 42.4 and 34.3 and 44.0
